Where “and” joins values, the source holds several entries; their conditions need not be identical. Identical values can stand only once.
Columns and labels:
Type in all cases: functional, Homo sapiens
Design in all cases: dose or concentration left out as unconfirmed
[1] = test system: Colon cancer organoid; experiment: (§1) Image-based profiling of donated chemical probes and chemogenomic kinase set in O21 CRC organoid. Image analysis is performed on the sum area metric, and the data were normalized to the DMSO control. After imaging the organoid viability is measured using the OneGloEX Luciferase Assay System. The normalized viability data and sum area are reported.
[2] = test system: Colon cancer organoid; experiment: as §1, with “O09” for “O21”
[3] = test system: Colon cancer organoid; experiment: as §1, with “O06” for “O21”

SMILES | Cell Viability ([1]; Replication number 1) | Cell Viability ([1]; Replication number 2) | Cell Viability ([2]; Replication number 1) | Cell Viability ([2]; Replication number 2) | Cell Viability ([3]; Replication number 1) | Cell Viability ([3]; Replication number 2)
CN1CCN(C(=O)C(C)(C)c2ccc(C(=O)Nc3cn4cc(-c5ccncc5)ccc4n3)cc2)CC1 [T3-CLK] | 57.8975% and 103.622% | 54.6627% and 104.082% | 41.227% and 51.6061% | 31.6537% and 31.5444% | 42.3595% and 97.4239% | 42.5998% and 77.939%
CCCCNNC(=O)c1ccc(Br)cc1 | 97.5198% and 109.34% | 111.608% and 95.0477% | 73.4793% and 89.7218% | 77.458% and 82.3883% | 141.347% and 94.2282% | 136.66% and 100.85%
Cc1sc2c(c1C)C(c1ccc(Cl)cc1)=N[C@H](CC(=O)OC(C)(C)C)c1nnc(C)n1-2 | 103.643% and 116.982% | 106.671% and 110.621% | 84.3348% and 91.1128% | 66.0131% and 88.6601% | 124.069% and 114.282% | 126.933% and 90.5736%
Cc1c(NC(=O)c2cc(C(N)=O)nc3cc(F)ccc23)c(C(F)(F)F)nn1Cc1ccc(C#N)cc1 [BAY-876] | 21.7392% and 19.9094% | 22.1552% and 34.1837% | 36.4456% and 33.4484% | 36.255% and 13.5816% | 10.662% and 26.9321% | 13.3809% and 14.2138%
O=C1CCc2cc(Nc3cc(OC4CCOCC4)c([N+](=O)[O-])cc3Cl)ccc2N1 | 105.584% and 104.204% | 94.4034% and 103.061% | 197.242% and 145.978% | 128.806% and 115.663% | 92.8758% and 110.539% | 96.13% and 100.681%
CC(C)[C@H](C(=O)Nc1ccc(C(=O)NO)cc1)c1ccccc1 [AR-42] | 145.989% and 67.015% | 137.871% and 83.2339% |  |  |  | 8.903% and 23.7546%
CN1CCN(Cc2ccc(Nc3ncc(Cl)c(Nc4ccccc4S(=O)(=O)N(C)C)n3)cc2)CC1 [DUBERMATINIB] |  |  | 4.849% and 7.106% | 5.761% and 10.5011% | 1.098% and 2.141% | 1% and 3.825%
Cn1cc(-c2[nH]c3cc(NC(=O)[C@H](N)C4CCCCC4)cc4c3c2C=NNC4=O)cn1 |  |  | 70.4366% and 51.3636% | 57.165% and 41.3025% | 9.563% and 27.3752% | 
COc1cc(Nc2ccnc3ccc(Br)cc23)cc(OC)c1OC |  |  | 33.1055% and 56.4229% | 29.2651% and 46.0292% |  | 5.197% and 15.2001%
CN(C)CC#Cc1ccc(OCCCc2sc(N3CCc4cccc(C(=O)Nc5nc6ccccc6s5)c4C3)nc2C(=O)O)c(F)c1 [A-1155463] | 47.3935% and 102.037% | 50.6709% and 99.4222% |  |  | 0.4141% and 9.206% | 0.1987% and 7.04%
Cc1cc(C)cc(C(=O)NOCCCCCC(=O)NO)c1 | 190.206% and 106.401% | 186.718% and 91.8258% |  |  | 14.9423% and 44.698% | 14.9026% and 40.6267%
CCN(CCO)CCCOc1ccc2c(Nc3cc(CC(=O)Nc4cccc(F)c4)[nH]n3)ncnc2c1 [DEFOSBARASERTIB] | 70.1574% and 72.5399% | 94.5203% and 86.7079% | 28.5576% and 26.4792% | 25.188% and 21.7278% |  | 
COc1cc2ncn(-c3cc(OCc4ccccc4C(F)(F)F)c(C(N)=O)s3)c2cc1OC [GW843682X] |  | 21.0036% and 58.1504% | 19.8463% and 25.1831% | 19.142% and 23.8097% |  | 
COc1c(OCCCN2CCOCC2)ccc2c1N=C(NC(=O)c1cnc(N)nc1)N1CCN=C21 [COPANLISIB] |  |  | 12.735% and 9.949% | 17.4919% and 14.9013% | 2.47% and 7.411% | 1.939% and 5.676%
